Data reported in PubChem BioAssay (NCI).
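Grown in 96-well plates, cells were treated for 48 hours with each compound at five concentrations. Insufficient inhibition: endpoint recorded as highest concentration tested. TGI: concentration producing complete growth inhibition.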

Assays:
Test in all cases: NCI-60 cell line screen, 48 h
NCI-H23 lung = tested on: NCI-H23 lung
786-0 renal = tested on: 786-0 renal
UACC-62 melanoma = tested on: UACC-62 melanoma
UACC-257 melanoma = tested on: UACC-257 melanoma
SK-MEL-5 melanoma = tested on: SK-MEL-5 melanoma
SW-620 colon = tested on: SW-620 colon
OVCAR-8 ovarian = tested on: OVCAR-8 ovarian
SNB-19 CNS = tested on: SNB-19 CNS
MCF7 breast = tested on: MCF7 breast
COLO 205 colon = tested on: COLO 205 colon
NCI-H460 lung = tested on: NCI-H460 lung
HCT-15 colon = tested on: HCT-15 colon
NCI-H522 lung = tested on: NCI-H522 lung
U251 CNS = tested on: U251 CNS
OVCAR-3 ovarian = tested on: OVCAR-3 ovarian
HL-60(TB) leukemia = tested on: HL-60(TB) leukemia
MDA-MB-435 = tested on: MDA-MB-435
OVCAR-4 ovarian = tested on: OVCAR-4 ovarian
NCI/ADR-RES ovarian = tested on: NCI/ADR-RES ovarian

| SMILES | TGI (NCI-H23 lung) [µM] | TGI (786-0 renal) [µM] | TGI (UACC-62 melanoma) [µM] | TGI (UACC-257 melanoma) [µM] | TGI (SK-MEL-5 melanoma) [µM] | TGI (SW-620 colon) [µM] | TGI (OVCAR-8 ovarian) [µM] | TGI (SNB-19 CNS) [µM] | TGI (MCF7 breast) [µM] | TGI (COLO 205 colon) [µM] | TGI (NCI-H460 lung) [µM] | TGI (HCT-15 colon) [µM] | TGI (NCI-H522 lung) [µM] | TGI (U251 CNS) [µM] | TGI (OVCAR-3 ovarian) [µM] | TGI (HL-60(TB) leukemia) [µM] | TGI (MDA-MB-435) [µM] | TGI (OVCAR-4 ovarian) [µM] | TGI (NCI/ADR-RES ovarian) [µM] |
| --- | --- | --- | --- | --- | --- | --- | --- | --- | --- | --- | --- | --- | --- | --- | --- | --- | --- | --- | --- |
| O=[N+]([O-])c1ccc(Cl)cc1-n1nc(-c2ccccc2)cc1-c1ccccc1 | > 100 | > 100 | > 100 | > 100 | > 100 | > 100 | > 100 | > 100 | > 100 | > 100 | > 100 | > 100 | > 100 | > 100 | > 100 | > 100 | > 100 | > 100 | > 100 |
| CC(C)(C)c1cc(C(=O)/C=C/c2ccc(O)c(O)c2O)cc(C(C)(C)C)c1O | 20 | 28.8 | 18.8 | 10.6 | 19 | 17.9 | > 63.7 | > 29.3 | 27.2 | 26.3 | 6.56 | 14.8 | 4.94 | 12.3 | > 100 | 5.82 | 36.7 | 26.5 | 14.8 |
| COc1cc(N(CCC#N)CCC#N)ccc1/C(N=Nc1ccc(C)cc1)=N/NC(=O)c1cc(Br)ccc1O | 39.3 | > 100 | 45.1 | 83.8 | 37 | > 100 | 88 | > 100 | > 100 | 29.1 | 54.4 | 33 | 50.3 | > 100 | 67.3 | 40.9 | > 100 | 63.1 | > 100 |
| CC(C)Nc1[nH]c(C(=O)c2ccccc2)c(N)c1C(=S)Nc1ccccc1 | > 100 | > 100 | 35.2 | 46.7 | 74.1 | > 100 | > 100 | > 100 | > 100 | 97.5 | > 100 | > 100 | > 100 | > 100 | > 100 | > 100 | 99.1 | > 100 | > 100 |
| Cc1c2c(c(C)n1-c1ccccc1)C(=O)N(CCSC(=N)N)C2=O | > 100 | > 100 | > 100 | > 100 | > 100 | > 100 | > 100 | > 100 | > 100 | > 100 | > 100 | > 100 | > 100 | > 100 | > 100 | > 100 | > 100 | > 100 | > 100 |
| COc1ccc2c(c1)c1nn(CCN(C)C)c3ccc4c(=O)n(CCN(C)C)c(=O)n2c4c13 | 0.231 | 0.136 | 0.474 | 0.717 | 0.784 | 0.355 | 0.175 | 0.635 | 0.198 | 0.182 | 0.0142 | 0.173 | 0.0747 | 1.69 | 0.255 | 0.34 | 0.166 | 0.0645 | 0.277 |
| CSCCC(NCc1c(O)ccc2ccc(=O)oc12)C(=O)O (configuration not stated) | > 100 | > 100 | > 100 | > 100 | > 100 | > 100 | > 100 | > 100 | > 100 | > 100 | > 100 | > 100 | > 100 | > 100 | > 100 | > 100 | > 100 | > 100 | > 100 |
| Cc1cccc(/C=N/NC(=S)NCc2ccccn2)n1 | > 100 | > 100 | 54.3 | > 100 | 70.9 | > 100 | > 100 | > 100 | > 100 | > 100 | > 100 | > 100 | > 100 | > 100 | > 100 | > 100 | > 100 | > 100 | > 75.4 |
| CCOC(=O)c1cccc(NC(=O)CBr)c1 | 2.77 | 0.494 | 2.92 | 3.86 | 2.76 | 1.66 | > 21.6 | 16.6 | 3.3 | 3.29 | 3.46 | 3.66 | 0.0437 | 1.89 | 3.34 | 3.58 | 2.51 | 3.73 | 4.39 |
| O/N=c1/ccn(O)c2ccccc12 | 8.96 | 10.3 | 2.53 | 21 | 2.77 | 11.8 | 1.81 | 14.1 | 7.49 | 4.74 | 3.67 | 5.21 | 3.23 | 6.65 | 6.59 | 8.8 | 17.4 | 4.43 | 4.7 |
| COC(=O)C1Cc2ccc(C)cc2C1=O (configuration not stated) | > 100 | > 100 | > 100 | > 100 | > 100 | > 100 | > 100 | > 100 | > 100 | > 100 | > 100 | > 100 | > 100 | > 100 | > 100 | > 100 | > 100 | > 100 | > 100 |
| CC12CC3CC/C(=N\O)C(C1)C3(N1CCOCC1)C/C2=N/O (configuration not stated) | > 100 | > 100 | > 100 | > 100 | > 100 | > 100 | > 100 | > 100 | > 100 | > 100 | > 100 | > 100 | > 100 | > 100 | > 100 | > 100 | > 100 | > 100 | > 100 |
| O=C1C(C(O)(C(F)(F)Cl)C(F)(F)Cl)CCC1C(O)(C(F)(F)Cl)C(F)(F)Cl (configuration not stated) | 6.19 | > 10 | > 10 | > 10 | > 10 | > 10 | > 10 | > 10 | > 10 | > 10 | > 10 | > 10 | > 10 | > 10 | > 10 | > 10 | > 10 | > 10 | > 10 |
